Usually melting point stands for the temperature of the solid-liquid transition.

The record followed here is a melting point compilation (Tetko et al.; mined from patent text by program, amines drawn as free bases though some values may be those of a salt).

Where only a bound is given, the exact number is not on record here.

With `COC(=O)c1sc(OC)cc1OP(=O)(OC)OC`, the melting point worked out at 35 °C.

Molecule `C[C@H](NC(=O)c1c(N)cccc1F)C(=O)O` gave a melting point of 194 to 198 °C.

`O=C1N(Cc2ccc(C(F)(F)F)o2)c2cccc(Br)c2C12COc1cc3c(cc12)CCO3` (stereo not drawn) displayed a melting point of 165 to 167 °C. In the case of `CS(=O)Cc1ccc(Cl)nc1` (stereo not drawn), the melting point was 72 to 74 °C.

Consider `CCCS(=O)(=O)c1cccc(-c2nc(=O)c3ccccc3s2)n1`, for which the melting point came out at 174 °C. Consider `CCOC(=O)C(=CNc1cc(=O)c2ccccc2o1)C(=O)OCC`, for which the melting point lay in the range of 138 to 140 °C.

`Cc1cc(C(=O)Nc2cc(Oc3ccc4nc(NC(=O)C5CC5)cn4n3)ccc2C)n(C)n1` returned a melting point of 223 °C.

As to `CCCCc1nc2ccc(NC(=O)C3CCCCC3C(=O)O)cc2n1Cc1ccc(-c2ccccc2C(=O)O)cc1` (stereo not drawn), the melting point was 186 to 188 °C. In turn, `Fc1cc2c(Cl)ncnc2cn1` came in with a melting point of 75 to 76 °C. Consider `COc1ccc2sc(C(=O)O)nc2c1[N+](=O)[O-]`, for which the melting point is 140 to 142 °C. Molecule `O=C1OC(=O)c2c(Cl)c(Sc3ccccc3)c(Cl)c(Cl)c21` came in with a melting point of 162 to 164 °C. The result for `OCCCC(=C(c1ccccc1)c1ccccc1)c1ccccc1` reads 128 to 130 °C; that for `O=C1CC(c2cccc(-n3ccnc3)c2)=Nc2cc(N3CC[C@@H](O)C3)c(-c3ccc(F)cc3)cc2N1`, 155 to 158 °C. To `c1ccc2nc3c(nc2c1)OCC1CCCCN31` (stereo not drawn) belongs 141 to 143 °C. In the case of `COc1cc(OC(c2ccccc2)c2ccccc2)ccc1/C=C/c1cc(/C=C/c2ccc3cc[nH]c3c2)[nH]n1`, the melting point lay within 114 to 119 °C. In turn, `N#Cc1ccc(-c2c[nH]cn2)cc1` displayed a melting point of 164 to 167 °C. The result for `CC(Oc1c(-c2ccc(S(C)(=O)=O)cc2)cnn(CC(F)(F)F)c1=O)c1ccc(F)cc1` (stereo not drawn) reads 133 to 135 °C; that for `CCN1CCN(Cc2nc3sc(Br)cc3c(=O)n2-c2ccccc2Cl)CC1`, 155 to 158 °C. To `CCC(=O)c1cc(Cl)c(Cl)c2c1OCC(CO)O2` (stereo not drawn) belongs 121 to 123 °C. `COc1cc2cc(C#N)sc2cc1OC` had a melting point of 125 °C. The result for `NNC(=O)C(=O)N(NC(=O)c1cc(Cl)ccc1O)C(=O)c1ccccc1O` reads greater than 330 °C. The result for `CN(C)c1ccc(C(=O)N[C@H](Cc2ccc(C(F)(F)F)cc2)[C@@H](O)c2ccc(F)cc2)c2ccccc12` (racemic) reads 169 to 170 °C; that for `C[C@H]1CN(c2ccccn2)[C@@H](C)CN1C1=c2ccccc2=NCN1c1ccccc1` (relative stereo), 68 to 70 °C. The result for `Cc1cnc(N2CCN(CC[C@H]3CC[C@H](NC(=O)C4CCOCC4)CC3)CC2)c2c1OCC2` reads 224 °C.

The molecule `COc1ccc(S(=O)(=O)Nc2ccc(Cl)c(OCCN(C)C)c2)cc1OC` yielded a melting point of 103 to 106 °C.

In turn, `CC12CCC3c4ccc(OCc5ccccc5)c(N)c4CCC3C1CCC2=O` (stereo not drawn) had a melting point of 219 to 221 °C.

For `O=c1[nH]nc2c3cc(F)ccc3[nH]c(=O)n12`, the melting point is greater than 350 °C. `CNC(=O)NS(=O)(=O)c1ccccc1OCCCl` displayed a melting point of 218 to 222 °C. To `Nc1ccc2c(ccn2Cc2ccccc2)c1` belongs 66 to 68 °C; to `COCOc1cc(OC)c(OC)cc1C#Cc1ccc(OC)c(OC)c1`, 84 to 86 °C; to `O=c1[nH]c2cc(Cl)cc(Cl)c2c(=O)n1Cc1ccc([N+](=O)[O-])cc1`, 227 to 230 °C. `NS(=O)(=O)c1ccccc1-c1ccc(C(=O)N2Cc3ccc(C(=O)NCc4cccnc4)n3Cc3ccccc32)cc1`: the melting point lay within 153 to 156 °C. To `C=CCc1c(O)c(C(=O)OC)cc(Cl)c1NC(C)=O` belongs 189 to 190 °C. To `O=C(Cn1nnc2ccccc21)Nc1ccc(-n2nc(C(F)(F)F)c(Cl)c2C2CC2)nc1` belongs 182 to 189 °C.

Turning to `O=[N+]([O-])c1c(F)cc(Br)c(OCCCl)c1Br`, the melting point was 56 °C. To `CNC(=O)C(Cc1ccc(OC)cc1)NC(=O)C(CC(C)C)C(S)CC(=O)OC(C)(C)C` (stereo not drawn) belongs 133 to 137 °C; to `COc1cc(C#N)ccc1OCCCN1CCC(c2noc3cc(F)ccc23)CC1`, 107 to 108 °C; to `CSc1cn(C(c2ccccc2)(c2ccccc2)c2ccccc2)c(F)n1`, 142 to 143 °C. To `O=C1COc2ccc(C3=Nn4cnnc4SC3c3ccccc3Cl)cc2N1` (stereo not drawn) belongs 234 to 235 °C. The result for `O=C1Nc2cccnc2N(C(=O)Cl)c2ccccc21` reads 239 to 240 °C; that for `COc1ccc(-c2cc(COS(C)(=O)=O)c(=O)n(CC3CCCC3)n2)cc1F`, 108 to 116 °C; that for `CNC(=O)Nc1occ(C(C)(C)C)c1C#N`, 163 °C.

On to `CC(C)Oc1ccc([N+](=O)[O-])cc1OCCN1C(=O)c2ccccc2C1=O`, for which the melting point was 132 °C. The result for `Cc1cc(C(=N)NO)ccc1-c1ccc(-c2nc3cc(C(=N)NO)ccc3[nH]2)cc1` reads 300 to 302 °C; that for `C=CCn1c(SCc2cnn(-c3c(Cl)cc(C(F)(F)F)cc3Cl)n2)nc(C#N)c1C#N`, 125 to 127 °C; that for `Nc1ncnc2c1c(-c1ccc(OCc3ccccc3)cc1)cn2-c1cccc(OCCCl)c1`, 146 to 148 °C. To `O=C1NN=C(c2ccc(Cl)cc2)C2CC12` (stereo not drawn) belongs 199 to 200 °C; to `NC(=O)CCc1cc(-c2ccncc2)sc1-c1ccncc1`, 196 °C; to `O=S(=O)(NCc1ccc(Br)cc1)c1ccccc1Br`, 108 to 110 °C. As for `CC(Cc1c[nH]c2ccccc12)NC1CCC(c2ccccc2)(N(C)C)CC1` (stereo not drawn), the melting point is 155 to 162 °C. The result for `CCCCCCCCCCCCCCOc1ccc(C(=O)Nc2cccc(CBr)c2)cc1` reads 116 to 118 °C. To `CC(=O)c1cccc(Oc2ncccc2OCCCc2ccncc2O)c1` belongs 101 to 102 °C; to `Cc1cn(C)c2c1Nc1ccccc1NC2=O`, 184 °C. `CC1(C)C(=O)Nc2ccc(-c3cccc(Cl)c3)cc21` showed a melting point of 188 to 189 °C. Molecule `O=c1c(Cl)c(Cl)cnn1C1CCCCO1` (stereo not drawn) yielded a melting point of 74 to 76 °C. As for `O=C(O)CCCCC(=NOCc1ccc(OCc2nc(-c3ccccc3)no2)cc1)c1ccccc1`, the melting point was 91 to 92 °C. The result for `COc1cc2c(cc1Br)CC(=O)NN=C2c1ccc([N+](=O)[O-])cc1` reads 245 to 256 °C; that for `Cc1nc(-c2cccc(-c3nc4sccn4c3-c3ccnc(N[C@@H]4CCCN(C(=O)OC(C)(C)C)C4)n3)c2)no1`, 110 to 112 °C; that for `O=C(O)CCCOc1cc(Cn2cc(C3c4ccccc4C=Cc4ccccc43)c(=S)[nH]c2=O)cc(OCC(=O)O)c1`, 104 to 109 °C.

For the molecule `CC(CS)C(=O)Nc1cc(C(=O)O)ccn1` (stereo not drawn), the melting point lay within 247 to 248 °C. To `COc1ccc(-c2nc(-c3ccccc3)c3ncc(Cl)cc3n2)cc1` belongs 193 to 194 °C; to `COc1cc(Oc2cccc(C(F)(F)F)c2)nc(C(=O)NO)c1`, 120 to 122 °C. The result for `CCOc1ncc(I)cc1C(N)=O` reads 176 to 179 °C; that for `Nc1ccc(Nc2ccccc2[N+](=O)[O-])cc1`, 110 to 112 °C; that for `Cc1cccc2c1nc(-c1c(F)cccc1F)n2S(=O)(=O)c1ccccc1`, 134 to 135 °C. The result for `COC1(c2cccc(OCc3ccc4ccccc4c3)c2)CCCOCC1` (stereo not drawn) reads 57 to 58 °C; that for `CC1C[C@H]2[C@@H]3CCC4=CC(=O)CC[C@]4(CS)[C@H]3CC[C@]2(C)C1=O` (stereo partly drawn), 130 to 132 °C. In turn, `CC(=O)OCc1nnc(N)s1` showed a melting point of 191 to 192 °C.

`O=C1Nc2cc(CN3CCC(c4ccccc4)CC3)ccc2OC1F` (stereo not drawn) registered a melting point of 217 to 221 °C.

`CCc1nc2c(s1)CC(COS(=O)(=O)c1ccc(C)cc1)CC2` (stereo not drawn) had a melting point of 54 to 56 °C. To `Cn1cc(-c2cnc3c(c2)ncn3Cc2ccc3ncccc3c2)cn1` belongs 150 to 152 °C. As for `Cc1cc(-c2cc(C(F)F)n3ncc(C(=O)Nc4nc(C)c(S(=O)(=O)NC(C)(C)CO)s4)c3n2)ccc1C(F)(F)F`, the melting point was 271 °C.

`O=C(O)COc1ccc(C(=O)c2ccc(Cl)c(Cl)c2)c(Cl)c1Cl` returned a melting point of 165 to 167 °C.

With `O=[N+]([O-])c1sc2ccc(F)cc2c1Br`, the melting point is 129 to 130 °C.

On to `Cc1ccc(C(Cl)=NO)cc1`, for which the melting point lay in the range of 69 to 71 °C. To `CSc1ncc(Cc2cccnc2)c(=O)[nH]1` belongs 247 to 249 °C; to `CCC(CO)Nc1ccc(Cl)cc1[N+](=O)[O-]` (stereo not drawn), 45 °C.

With `CCc1ccc2cc(OC)cc(NC(C)CCCN)c2n1` (stereo not drawn), the melting point was in the range of 111 to 114 °C. The result for `C#CCOc1cc(OCC=C)ccc1-c1nc2cnncc2[nH]1` reads 265 °C; that for `CC1(C)C(=O)NC(c2ccc(NC(=O)CCl)cc2)c2ccccc21` (stereo not drawn), 218 to 219 °C. Regarding `Cc1cnnc2ccccc12`, the melting point lay in the range of 70 to 72 °C. To `CC(=O)Nc1cc(-c2ccc(S(C)(=O)=O)cc2)c(-c2ccc(F)cc2)s1` belongs 80 to 92 °C; to `CS(=O)(=O)c1ccc(-c2cnn(Cc3cccnc3)c(=O)c2-c2ccc(F)cc2)cc1`, 160 to 161 °C; to `CS(=O)(=O)NS(=O)(=O)c1cccc(NC(=O)NC2N=C(c3ccccc3F)c3ccccc3N(CC(=O)N3CC4CCC(CC4)C3)C2=O)c1` (racemic), greater than 250 °C. For the molecule `Cc1oc(-c2cccnc2)nc1CCl`, the melting point was in the range of 87 to 88 °C. In turn, `Cc1nnc(-c2ccccc2F)n2nc(OCc3cn(C)nn3)c(-c3ccsc3)c12` registered a melting point of 181 to 186 °C. To `C=CCN(CC=C)Cc1noc(-c2ncn3c2[C@@H]2CCN2C(=O)c2c-3ccc(F)c2Cl)n1` belongs 127 °C. The result for `O=C1CCC(C(=O)OC2c3ccccc3C(=O)N2c2ccc3ccc(Cl)nc3n2)CC1` (stereo not drawn) reads 203 °C.
